Test results: PubChem BioAssay (NCI)
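Method: 48-hour compound exposure of cells in 96-well plates, five concentrations, linear interpolation of endpoints. The concentration for full growth arrest is given as TGI.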

Columns and labels:
Experiment in all cases: NCI anticancer screen, dose series, 48 h
786-0 renal = tested on: 786-0 renal
A498 renal = tested on: A498 renal
A549 NSCLC = tested on: A549 NSCLC
ACHN renal = tested on: ACHN renal
BT-549 breast = tested on: BT-549 breast
CAKI-1 renal = tested on: CAKI-1 renal
CCRF-CEM leukemia = tested on: CCRF-CEM leukemia
COLO 205 colon = tested on: COLO 205 colon
DU-145 prostate = tested on: DU-145 prostate
EKVX NSCLC = tested on: EKVX NSCLC
HCC-2998 colon = tested on: HCC-2998 colon
HCT-116 colon = tested on: HCT-116 colon
HCT-15 colon = tested on: HCT-15 colon
HOP-92 NSCLC = tested on: HOP-92 NSCLC
HS 578T breast = tested on: HS 578T breast
HT29 colon = tested on: HT29 colon
IGROV1 ovarian = tested on: IGROV1 ovarian
K-562 leukemia = tested on: K-562 leukemia
KM12 colon = tested on: KM12 colon
LOX IMVI melanoma = tested on: LOX IMVI melanoma
MALME-3M melanoma = tested on: MALME-3M melanoma
MCF7 breast = tested on: MCF7 breast
MDA-MB-231 breast = tested on: MDA-MB-231 breast
MDA-MB-435 = tested on: MDA-MB-435
MDA-N = tested on: MDA-N
MOLT-4 leukemia = tested on: MOLT-4 leukemia
NCI-H226 lung = tested on: NCI-H226 lung
NCI-H23 lung = tested on: NCI-H23 lung
NCI-H522 lung = tested on: NCI-H522 lung
NCI/ADR-RES ovarian = tested on: NCI/ADR-RES ovarian
OVCAR-3 ovarian = tested on: OVCAR-3 ovarian
OVCAR-4 ovarian = tested on: OVCAR-4 ovarian
OVCAR-8 ovarian = tested on: OVCAR-8 ovarian
PC-3 prostate = tested on: PC-3 prostate
RPMI-8226 leukemia = tested on: RPMI-8226 leukemia
RXF 393 renal = tested on: RXF 393 renal
SF-268 CNS = tested on: SF-268 CNS
SF-295 CNS = tested on: SF-295 CNS
SF-539 CNS = tested on: SF-539 CNS
SK-MEL-2 melanoma = tested on: SK-MEL-2 melanoma
SK-MEL-5 melanoma = tested on: SK-MEL-5 melanoma
SN12C renal = tested on: SN12C renal
SNB-19 CNS = tested on: SNB-19 CNS
SNB-75 CNS = tested on: SNB-75 CNS
SR leukemia = tested on: SR leukemia
SW-620 colon = tested on: SW-620 colon
T-47D breast = tested on: T-47D breast
TK-10 renal = tested on: TK-10 renal
U251 CNS = tested on: U251 CNS
UACC-257 melanoma = tested on: UACC-257 melanoma
UACC-62 melanoma = tested on: UACC-62 melanoma
UO-31 renal = tested on: UO-31 renal
HOP-62 NSCLC = tested on: HOP-62 NSCLC
M14 melanoma = tested on: M14 melanoma
NCI-H460 lung = tested on: NCI-H460 lung
OVCAR-5 ovarian = tested on: OVCAR-5 ovarian
SK-MEL-28 melanoma = tested on: SK-MEL-28 melanoma
SK-OV-3 ovarian = tested on: SK-OV-3 ovarian

Measured: TGI

O=c1[nH]nc(Cc2ccccc2)n1/N=C/c1c(O)ccc2ccccc12
42.9 µM: SF-539 CNS
64.2 µM: NCI/ADR-RES ovarian
30.3 µM: 786-0 renal
79.2 µM: MOLT-4 leukemia | SNB-75 CNS
44.2 µM: MDA-MB-231 breast
84.5 µM: ACHN renal
38.6 µM: U251 CNS
35.5 µM: NCI-H522 lung
83.9 µM: HT29 colon
57.8 µM: EKVX NSCLC
88.8 µM: CAKI-1 renal
48.7 µM: SK-MEL-5 melanoma
45.6 µM: HCT-116 colon
47.5 µM: OVCAR-3 ovarian
73.6 µM: NCI-H226 lung
64 µM: PC-3 prostate
82.5 µM: RPMI-8226 leukemia
81.9 µM: KM12 colon
46.5 µM: SNB-19 CNS
51.9 µM: OVCAR-8 ovarian
50.3 µM: HOP-92 NSCLC
49.6 µM: RXF 393 renal
90.6 µM: SF-268 CNS
77.1 µM: T-47D breast
50.7 µM: MALME-3M melanoma
93.4 µM: IGROV1 ovarian
59.9 µM: SR leukemia
69 µM: SF-295 CNS
64.4 µM: K-562 leukemia
47.4 µM: A498 renal
81.1 µM: HS 578T breast
67.1 µM: OVCAR-4 ovarian
not listed: HOP-62 NSCLC | M14 melanoma | NCI-H460 lung | OVCAR-5 ovarian | SK-MEL-28 melanoma | SK-OV-3 ovarian
> 100 µM: all other assays above

COC(OC)C1OC(CO)C(n2cc(C)c(=O)[nH]c2=O)C1O (stereo not given)
> 100 µM: all assays above
